Results reported in patent EP4461294A1, “LIPOLYTIC AND ANTIADIPOGENIC COUMARIN DERIVATIVES” (Karl-Franzens-Universität Graz, priority 2023, dated 2024).

Key:
Format in all cases: cell-based
[1] = system: mature 3T3-L1 cells; assay: Forskolin-stimulated lipolysis, release of free fatty acids into the medium; details: for forskolin-induced lipolysis: 3 h
Method: (§1) 3T3-L1 preadipocytes were seeded onto 6-well plates and cultured in DMEM (D5796; high glucose) supplemented with 10% fetal bovine serum, penicillin, and streptomycin at 37 °C in 5% CO2 atmosphere and 80% humidity. Differentiation of cells were performed for 10 days as described in 2.4. Mature adipocytes were washed twice in low glucose containing DMEM (D4947). Lipolysis was induced by addition of the adenylyl cyclase activator forskolin (10 µM) and cells were incubated in medium containing 2% fatty acid-free BSA for up to 6 h in the absence and presence of coumarins. In basal lipolysis experiments, forskolin was excluded. Aliquots of the medium were collected and release of free fatty acids (FFAs) was measured using the NEFA Assay Kit from FUJIFILM Wako Chemicals Europe GmbH (Neuss, Germany) (ASC-ACOD method) according to the manufacturer's instructions.

[2] = system: PPARγ; assay: Western blot, protein expression of PPARγ during adipogenesis of 3T3-L1 cells; details: adipogenesis terminated at day 7, increasing concentrations
Method: (§2) 3T3-L1 preadipocytes were cultured in DMEM (D5796, high glucose) supplemented with 10% FBS, penicillin, and streptomycin at 37 °C in 5% CO2 atmosphere and 80% humidity. For long-term experiments, cells were seeded onto 6-well plates and grown to confluence. Adipogenesis was induced 48 h post confluence (day 0) by addition of culture medium containing […], […] dexamethasone, and 500 µM 3-isobutyl-1-methylxan-thine (IBMX). Experiments were performed in the absence and presence of increasing concentrations of ethanolic citrus extracts (total peel, flavedo and albedo layers) or commercially available citropten, bergamottin and 5-geranyloxy-7-methox-ycoumarin. Ethanol (0.1%) served as vehicle. At days 3 and 5, medium was replaced by fresh medium supplemented with 10 pg/ml and 0.2 ug/ml insulin, respectively, with and without compounds. At day 7, adipogenesis was terminated by harvest of cells. In a short-term approach, differentiation was performed for 24 h. […]
(§3) Lysates were denaturated by boiling with 5-fold Laemmli buffer for 10 min at 95 °C. […] After incubation of membranes with respective horseradish peroxidase-conjugated IgGs immunoreactive bands were visualized using Western Bright™ ECL or Western Bright™ Quantum substrates (Biozym, Austria) and chemiluminescence was quantified with the Fusion SL Imaging System (VWR International GmbH).

[3] = system: C/EBPα; assay: Western blot, protein expression of C/EBPα during adipogenesis of 3T3-L1 cells; details: adipogenesis terminated at day 7, increasing concentrations
Method: as §2, §3

[4] = system: C/EBPβ; assay: Western blot, protein expression of C/EBPβ (isoforms LAP*, LAP, LIP) in 3T3-L1 cells; details: for protein expression of C/EBPβ (isoforms LAP*, LAP and LIP): 10 µg/ml each
Method: 3T3-L1 preadipocytes were cultured in DMEM (D5796, high glucose) supplemented with 10% FBS, penicillin, and streptomycin at 37 °C in 5% CO2 atmosphere and 80% humidity. For long-term experiments, cells were seeded onto 6-well plates and grown to confluence. Adipogenesis was induced 48 h post confluence (day 0) by addition of culture medium containing […], 0.4 pg/ml dexamethasone, and 500 µM 3-isobutyl-1-methylxan-thine (IBMX). Experiments were performed in the absence and presence of increasing concentrations of ethanolic citrus extracts (total peel, flavedo and albedo layers) or commercially available citropten, bergamottin and 5-geranyloxy-7-methox-ycoumarin. Ethanol (0.1%) served as vehicle. At days 3 and 5, medium was replaced by fresh medium supplemented with 10 pg/ml and 0.2 ug/ml insulin, respectively, with and without compounds. At day 7, adipogenesis was terminated by harvest of cells. In a short-term approach, differentiation was performed for 24 h. Cells were harvested by treatment with RIPA buffer (#R0278, Sigma) containing EDTA (2 mM) and cOmplete Protease Inhibitor Cocktail (total volume of 150 µl per well) and scraped off mechanically. Cell suspensions were transferred to Eppendorf vials, homogenized by repeated sonication, and kept on ice for 10 min. Aliquots were stored at 4 °C for measurement of triglycerides (TGs) and total cellular protein content. For Western blot experiments homogenates were stored at -80 °C.
Lysates were denaturated by boiling with 5-fold Laemmli buffer for 10 min at 95 °C. Samples containing 15 µg of protein were separated by SDS-PAGE on 8-12% gels for 45 min at 180 V. Thereafter, proteins were transferred onto nitrocellulose membranes for 90 min (240 mA). After blocking with Tris-buffered saline containing 0.1% (v/v) Tween-20 and 5% non-fat dry milk for 1 h (ambient temperature) membranes were incubated overnight at 4 °C with primary antibodies. After incubation of membranes with respective horseradish peroxidase-conjugated IgGs immunoreactive bands were visualized using Western Bright™ ECL or Western Bright™ Quantum substrates (Biozym, Austria) and chemiluminescence was quantified with the Fusion SL Imaging System (VWR International GmbH).

[5] = system: C/EBPδ; assay: Western blot, protein expression of C/EBPδ in 3T3-L1 cells; details: 10 pg/ml each
Method: as §2, §3

[6] = system: C/EBPβ; assay: Dual luciferase reporter assay, transcriptional activity of C/EBPβ in HEK293 cells; details: 24 h; for transcriptional activity of C/EBPβ: 10 µg/ml
Method: (§4) At 80-90% confluence, HEK293 cells were co-transfected with C/EBPβ or C/EBPδ DNA (1 µg each) and Cignal Reporter (0,5 µg) in serum- and antibiotic-free medium using TurboFect™ Transfection Reagent (ThermoFisher Scientific). Cells were incubated for 24 h in the absence and presence of citropten, bergamottin or 5-geranyloxy-7-methoxycoumarin. Thereafter, cells were harvested and lysed according to the manufacturer's instructions. Activities of firefly luciferase and Renilla luciferase were sequentially measured as biolumi-nescence using the GloMax Discover System GM3000 (Promega) as described. Luminescence of each sample was normalized to Renilla luciferase activity.

[7] = system: C/EBPδ; assay: Dual luciferase reporter assay, transcriptional activity of C/EBPδ in HEK293 cells; details: 10 µg/ml, 24 h
Method: as §4, with “Transcriptional activities of C/EBPβ and C/EBP6 were measured using the C/EBP Cignal™ Reporter Assay (CCS-001L; dual luc) from Qiagen (Germany) and the Dual-Luciferase® Reporter Assay System (E1910; Promega Corporation, Germany) as recently described (Mussbacher et al., 2019, Sci Rep, 9(1), 15403. https://doi.org/10.1038/s41598-019-51579-x). pcDNA-mC/EBPβ (Addgene plasmid # 49198) and pcDNA-mC/EBP6 (Addgene plasmid #12559) were gifts from Jed Friedman and Peter Johnson, respectively. At” for “At”

[8] = system: AMPK; assay: Western blot, expression and phosphorylation of AMPK, short-term experiments in 3T3-L1 cells; details: 10 µg/ml, short-term (24 h), compared to controls
Method: as §2, §3

[9] = system: acetyl-CoA carboxylase (ACC); assay: Western blot, expression and phosphorylation of ACC, short-term experiments in 3T3-L1 cells
Method: as §2, §3

[10] = system: mature 3T3-L1 cells; assay: Basal lipolysis, release of free fatty acids into the medium (forskolin excluded); design: dose or concentration left out as unconfirmed; details: without forskolin, 3 h
Method: as §1

Row | SMILES | forskolin-induced lipolysis ([1]; 56 µM (10 µg/ml)) | protein expression of PPARγ [2] | protein expression of C/EBPα [3] | protein expression of C/EBPβ (isoforms LAP*, LAP and LIP) [4] | protein expression of C/EBP6 [5] | transcriptional activity of C/EBPβ [6] | transcriptional activity of C/EBP6 (C/EBPδ-dependent transcriptional activity) [7] | phosphorylation of AMPK at Thr172 [8] | also measured
1 | O=c1ccc2cc(O)c(O)cc2o1 [esculetin, 6,7-dihydroxy-2H-chromen-2-one] | did not significantly enhance | – | – | – | – | – | – | – | –
2 | CC(C)=CCC/C(C)=C/COc1c2ccoc2cc2oc(=O)ccc12 [bergamottin, 4-[(2E)-3,7-dimethylocta-2,6-dienoxy]furo[3,2-g]chromen-7-one] | – | concentration-dependently suppressed | concentration-dependently suppressed | not affected | not affected | not affected | not affected | significantly increased | phosphorylation of ACC (Ser79) ([9]; 10 µg/ml, short-term experiments, p<0.05 vs vehicle-treated cells): significantly increased; forskolin-induced lipolysis ([1]; 30 µM (10 µg/ml)): did not significantly enhance
3 | COc1cc(OC)c2ccc(=O)oc2c1 [citropten, 5,7-dimethoxy-2H-chromen-2-one] | – | – | – | – | – | – | – | – | expression of LIP ([4]; 25 µg/ml, p<0.05 vs vehicle-treated cells): significantly upregulated; protein expression of C/EBPβ ([4]; citropten 25 µg/ml): increased; activity of C/EBPβ ([6]; citropten 25 µg/ml): increased; forskolin-induced lipolysis ([1]; 10 pg/ml (≈ 48 µM)): significant effect; activity at 120 µM ([1]; Mus musculus, 3T3-L1, 25 µg/ml (≈ 120 µM), 3-4 h after induction of lipolysis, read-out: effect on forskolin-stimulated lipolysis (release of FFAs), maximal): 185 to 190%; forskolin-stimulated lipolysis ([1]; forskolin 10 µM, time- and concentration-dependent manner): enhanced; release of FFAs ([1]; forskolin-stimulated, 25 µg/ml (≈ 120 µM), within 0.5 and 6 h): significantly increased; basal release of FFAs [10]: increased
4 | COc1cc(OC/C=C(\C)CCC=C(C)C)c2ccc(=O)oc2c1 [5-geranyloxy-7-methoxycoumarin, 5-[(2E)-3,7-dimethylocta-2,6-dienoxy]-7-methoxychromen-2-one] | – | concentration-dependently suppressed | concentration-dependently suppressed | not affected | not affected | not affected | tendency to decrease | more than doubled | transcriptional activity of C/EBP6 (C/EBPδ-dependent transcriptional activity) ([7]; listed as 5-geranyloxy-7-methoxy-coumarin): not affected; fold induction at 10 µg/mL ([9]; Mus musculus, 3T3-L1, short-term (24 h), compared to controls, read-out: phosphorylation of acetyl-CoA carboxylase (ACC) at Ser79): ~3
5 | COc1cc2oc(=O)ccc2cc1O [isoscopoletin, 6-hydroxy-7-methoxy-2H-chromen-2-one] | did not significantly enhance | – | – | – | – | – | – | – | –
6 | COc1ccc2ccc(=O)oc2c1 [herniarin, 7-methoxy-2H-chromen-2-one] | – | – | – | – | – | – | – | – | forskolin-induced lipolysis ([1]; 141 µM (25 µg/ml)): did not significantly enhance
